Test results taken from patent US8481546B2, “CGRP receptor antagonist” (Bristol-Myers Squibb Company, priority 2010, dated 2013).

Legend:
Solution state stability = assay type: physicochemical
Method: The solution state stability of Compound I was evaluated as a function of temperature, pH, high intensity light (HIL), buffer concentration, and drug concentration.
Succinate buffer was used for all solutions. For samples exposed to light, a photostability chamber was used in accordance with ICH guidelines (1.2 million lux hour exposure to visible light and 200 watt hour/m^2 to UV). Analyses were performed at 4, 8 and 12 weeks.

[1] = target: T1, CGRP receptor endogenously expressed in SK-N-MC cell membranes (Homo sapiens, UniProt O60894+Q16602); assay: Competition for [125I]CGRP binding (radioligand competition assay); conditions: 15 pM [125I]CGRP, read-out: mean Ki, inhibition of [125I]CGRP binding
T1 construct: endogenous in cells; host or cells: SK-N-MC human neuroblastoma cells (membrane homogenate or attached whole cells)
Method: SK-N-MC cell membrane homogenate serves as the receptor source. Human neuroblastoma SK-N-MC cells are used for in vitro assays because they endogenously express the CGRP receptor with an identical sequence to the cloned human CGRP receptor (Aiyar et al., 2001). Cells are grown at 37° C. in 5% CO2 in medium consisting of MEM with Earle's salts and L-glutamine supplemented with 10% fetal bovine serum to reach confluence. The cells are harvested by rinsing twice with phosphate-buffered saline and are incubated for 5-10 minutes at 4° C. in hypotonic lysis buffer consisting of 10 mM Tris (pH 7.4) and 5 mM EDTA. The cells are collected and transferred to polypropylene tubes and homogenized using a polytron. Homogenates are centrifuged at 32,000×g for 30 min. The pellets are resuspended in cold hypotonic lysis buffer with 0.1% mammalian protease inhibitor cocktail and assayed for protein concentration. The membrane homogenate is then aliquoted and stored at −80° C. until the day of assay.
The ability of Compound I to compete for the radiolabeled ([^125I]CGRP, Amersham Biosciences) endogenous peptide human alpha CGRP (hαCGRP) is measured using a radioligand competition assay. Compound I is first solubilized in and carried through serial dilutions using 100% DMSO. […] Protein bound radioactivity is measured using a gamma scintillation counter. […]

[2] = target: T2, CGRP receptor (CGRP-stimulated cAMP production) (Homo sapiens, UniProt O60894+Q16602); assay: Schild analysis of CGRP-stimulated cAMP production; assay type: cell-based
T2 construct: endogenous in cells; host or cells: SK-N-MC human neuroblastoma cells (membrane homogenate or attached whole cells)
Method: Schild analysis is used to characterize the nature of the antagonism of Compound I. The dose response of CGRP-stimulated cAMP production is generated either with CGRP alone, or with CGRP in the presence of various concentrations of Compound I. Specifically, dose-dependent cAMP stimulation by CGRP is assayed with or without five different concentrations of Compound I. The concentration of Compound I is plotted on the X-axis against the dose ratio minus 1 on the Y-axis (dose ratio is defined as the EC50 of CGRP in the presence of Compound I divided by the EC50 of CGRP alone). Linear regression is then performed with both X and Y axes log-transformed. […] Kb is the antagonist dissociation constant.

[3] = system: olfactory epithelium (nasal tissues); assay: One-week comparative intranasal irritation study in rats (Compound I vs Compound III): nasal histology and tolerability; assay type: in vivo; conditions: for Olfactory Epithelial Atrophy, incidence of severity Marked (number of rats) / Olfactory Epithelial Atrophy, incidence of severity Mild (number of rats) / Olfactory Epithelial Atrophy, incidence of severity Minimal (number of rats) / Olfactory Epithelial Atrophy, incidence of severity Moderate (number of rats) / Olfactory Epithelial Atrophy, incidence of severity None (number of rats): 1 week
Method: This study was conducted to compare potential nasal irritation of Compound I to Compound III when given intranasally to male rats for 1 week. Male rats (10/group) were instilled intranasally with Compound I or Compound III solutions ([…] in 225 mM succinic acid, 0.02% benzalkonium chloride, 1.25% anhydrous dextrose, pH 5.8-6.2) once daily at a dose volume of 100 μL/nostril. Using this dosing paradigm, fixed doses of 5, 15 or 35 mg of test article were delivered daily. As a consequence, dosages normalized to body weight decreased with time as the rats grew. One control group was given succinate vehicle and a sham control group was given saline by intranasal instillation. Parameters evaluated included clinical observations, body weight, food consumption, toxicokinetics, and histological evaluation of nasal tissues.

[4] = Sample A: pH 4, 40 C, 0.1 mg/ml drug, 0.05 M succinate buffer
[5] = Sample B: pH 5, 25 C, 0.1 mg/ml drug, 0.05 M succinate buffer
[6] = Sample C: pH 5, 25 C/light, 0.1 mg/ml drug, 0.05 M succinate buffer
[7] = Sample D: pH 5, 60 C, 0.1 mg/ml drug, 0.05 M succinate buffer
[8] = Sample E: pH 5, 40 C, 0.1 mg/ml drug, 0.05 M succinate buffer
[9] = Sample F: pH 6, 40 C, 0.1 mg/ml drug, 0.05 M succinate buffer
[10] = Sample G: pH 4, 40 C, 40 mg/ml drug, 0.05 M succinate buffer
[11] = Sample H: pH 5, 40 C, 40 mg/ml drug, 0.05 M succinate buffer
[12] = Sample I: pH 6, 40 C, 40 mg/ml drug, 0.05 M succinate buffer
[13] = Sample J: pH 5, 40 C, 0.1 mg/ml drug, 0.01 M succinate buffer
[14] = nasal instillation 5 mg (0.357 mg/cm^2) once daily
[15] = nasal instillation 15 mg (1.07 mg/cm^2) once daily
[16] = nasal instillation 35 mg (2.50 mg/cm^2) once daily

Compound: Cc1cc(C[C@@H](NC(=O)N2CCC(c3cc4ccccc4[nH]c3=O)CC2)C(=O)N2CCN(C3CCN(C)CC3)CC2)cc2cn[nH]c12 [Compound I, (R)—N-(3-(7-methyl-1H-indazol-5-yl)-1-(4-(1-methylpiperidin-4-yl)piperazin-1-yl)-1-oxopropan-2-yl)-4-(2-oxo-1,2-dihydroquinolin-3-yl)piperidine-1-carboxamide]
- Area percent of Deg A at twelve weeks (Solution state stability; [4]): 2.0 area percent
- Area percent of Deg C at twelve weeks (Solution state stability; [4]): 10.5 area percent
- Area percent of Deg A at twelve weeks (Solution state stability; [5]): .5 area percent
- Area percent of Deg B at twelve weeks (Solution state stability; [5]): 0.1 area percent
- Area percent of Deg A at twelve weeks (Solution state stability; [6]): 16.9 area percent
- Area percent of Deg B at twelve weeks (Solution state stability; [6]): 2.9 area percent
- Area percent of Deg C at twelve weeks (Solution state stability; [6]): 2.8 area percent
- Area percent of Deg D at twelve weeks (Solution state stability; [6]): 5.2 area percent
- Area percent of Deg E at twelve weeks (Solution state stability; [6]): 1.0 area percent
- Area percent of Deg F at twelve weeks (Solution state stability; [6]): 7.7 area percent
- Area percent of Deg I at twelve weeks (Solution state stability; [6]): 5.7 area percent
- Area percent of Deg A at twelve weeks (Solution state stability; [7]): 1.2 area percent
- Area percent of Deg C at twelve weeks (Solution state stability; [7]): 55.0 area percent
- Area percent of Deg A at twelve weeks (Solution state stability; [8]): 1.9 area percent
- Area percent of Deg B at twelve weeks (Solution state stability; [8]): 0.2 area percent
- Area percent of Deg E at twelve weeks (Solution state stability; [8]): .1 area percent
- Area percent of Deg A at twelve weeks (Solution state stability; [9]): .4 area percent
- Area percent of Deg B at twelve weeks (Solution state stability; [9]): 0.1 area percent
- Area percent of Deg E at twelve weeks (Solution state stability; [9]): .1 area percent
- Area percent of Deg A at twelve weeks (Solution state stability; [10]): 4.9 area percent
- Area percent of Deg E at twelve weeks (Solution state stability; [10]): 3.5 area percent
- Area percent of Deg G at twelve weeks (Solution state stability; [10]): 0.1 area percent
- Area percent of Deg H at twelve weeks (Solution state stability; [10]): .1 area percent
- Area percent of Deg J at twelve weeks (Solution state stability; [10]): 0.1 area percent
- Area percent of Deg A at twelve weeks (Solution state stability; [11]): 1.2 area percent
- Area percent of Deg B at twelve weeks (Solution state stability; [11]): 0.1 area percent
- Area percent of Deg E at twelve weeks (Solution state stability; [11]): 0.0 area percent
- Area percent of Deg G at twelve weeks (Solution state stability; [11]): 0.1 area percent
- Area percent of Deg J at twelve weeks (Solution state stability; [11]): 0.0 area percent
- Area percent of Deg A at twelve weeks (Solution state stability; [12]): .2 area percent
- Area percent of Deg B at twelve weeks (Solution state stability; [12]): 0.1 area percent
- Area percent of Deg C at twelve weeks (Solution state stability; [12]): 0.0 area percent
- Area percent of Deg E at twelve weeks (Solution state stability; [12]): 0.0 area percent
- Area percent of Deg G at twelve weeks (Solution state stability; [12]): 0.1 area percent
- Area percent of Deg J at twelve weeks (Solution state stability; [12]): 0.1 area percent
- Area percent of Deg A at twelve weeks (Solution state stability; [13]): 1.1 area percent
- Area percent of Deg B at twelve weeks (Solution state stability; [13]): 0.1 area percent
- Area percent of Deg E at twelve weeks (Solution state stability; [13]): .1 area percent
- Area percent of Deg H at twelve weeks (Solution state stability; [13]): 0.5 area percent
- degradation after 12 weeks at 40 C (Solution state stability; condition I in Table 2: pH 6, 40 C, 40 mg/ml drug, 0.05 M buffer): 0.3%
- Ki [1]: 0.0227 nM
- Schild analysis mean slope [2]: 1.02±0.04
- Kb ([2]; Schild analysis, read-out: mean antagonist dissociation constant Kb): 0.0215 ± 0.0094 nM
- tolerability of intranasal administration ([3]; male rats, 5, 15 or 35 mg once daily for 1 week): well tolerated
- Olfactory Epithelial Atrophy, incidence of severity Marked (number of rats) [3, 14]: 0
- Olfactory Epithelial Atrophy, incidence of severity Mild (number of rats) [3, 14]: 0
- Olfactory Epithelial Atrophy, incidence of severity Minimal (number of rats) [3, 14]: 1
- Olfactory Epithelial Atrophy, incidence of severity Moderate (number of rats) [3, 14]: 0
- Olfactory Epithelial Atrophy, incidence of severity None (number of rats) [3, 14]: 8
- Olfactory Epithelial Atrophy, incidence of severity Marked (number of rats) [3, 15]: 0
- Olfactory Epithelial Atrophy, incidence of severity Mild (number of rats) [3, 15]: 2
- Olfactory Epithelial Atrophy, incidence of severity Minimal (number of rats) [3, 15]: 6
- Olfactory Epithelial Atrophy, incidence of severity Moderate (number of rats) [3, 15]: 0
- Olfactory Epithelial Atrophy, incidence of severity None (number of rats) [3, 15]: 1
- Olfactory Epithelial Atrophy, incidence of severity Marked (number of rats) [3, 16]: 0
- Olfactory Epithelial Atrophy, incidence of severity Mild (number of rats) [3, 16]: 2
- Olfactory Epithelial Atrophy, incidence of severity Minimal (number of rats) [3, 16]: 3
- Olfactory Epithelial Atrophy, incidence of severity Moderate (number of rats) [3, 16]: 0
- Olfactory Epithelial Atrophy, incidence of severity None (number of rats) [3, 16]: 4
